Measured values taken from paper PMC7238120, “Strong and Selective Inhibitory Effects of the Biflavonoid Selamariscina A against CYP2C8 and CYP2C9 Enzyme Activities in Human Liver Microsomes” (Pharmaceutics, 2020).

Tests used:
Type in all cases: in vitro ADME
UGT1A4 = target: T1, UGT1A4 (Homo sapiens, UniProt P22310); assay: Inhibition of UGT1A4 (trifluoperazine glucuronidation) in human liver microsomes; conditions: substrate trifluoperazine; HLMs; average ± standard error
T1 construct: tissue XenoTech XTreme 200; host or cells: pooled human liver microsomes
T1 sequence (P22310 29-534): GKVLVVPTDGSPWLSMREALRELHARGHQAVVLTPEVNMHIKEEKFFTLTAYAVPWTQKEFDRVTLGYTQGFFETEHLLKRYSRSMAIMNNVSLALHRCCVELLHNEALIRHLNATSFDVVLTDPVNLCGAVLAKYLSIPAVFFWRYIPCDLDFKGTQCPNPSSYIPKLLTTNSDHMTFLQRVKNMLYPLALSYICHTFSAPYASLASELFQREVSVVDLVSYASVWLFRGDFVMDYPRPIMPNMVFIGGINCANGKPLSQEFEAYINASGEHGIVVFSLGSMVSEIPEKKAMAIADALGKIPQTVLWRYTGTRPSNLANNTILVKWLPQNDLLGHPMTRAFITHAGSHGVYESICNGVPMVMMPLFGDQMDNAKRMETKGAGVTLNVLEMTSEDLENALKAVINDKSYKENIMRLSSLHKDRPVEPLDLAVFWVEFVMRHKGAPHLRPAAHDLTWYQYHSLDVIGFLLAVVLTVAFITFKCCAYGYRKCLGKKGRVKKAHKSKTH
Method: (§1) The ability of selamariscina A to inhibit the metabolism of six UGT enzyme probe substrates was evaluated using previously developed methods with minor modifications. The microsomal incubation was performed by dividing the non-interactive substrate cocktail sets (set A included SN-38 for UGT1A1, CDCA for UGT1A3 and TFP for UGT1A4 while set B included N-SER for UGT1A6, MPA for UGT1A9 and NX for UGT2B7) (Table 2). In brief, HLMs (0.25 mg/mL) were activated by incubation in the presence of alamethicin (25 µg/mL) for 15 min on ice. After the addition of UGT probe substrates and inhibitor (0, 0.5, 2, 5, 20 and 50 μM), the incubation mixtures were pre-incubated at 37 °C for 5 min. […] After centrifugation at 18,000 g (5 min, 4 °C), aliquots of supernatants were analyzed by LC–MS/MS. […]
(§2) All metabolites and the IS were separated on a Kinetex XB-C18 column (100 × 2.10 mm, 2.6 μm, 100 Å; Phenomenex, Torrance, CA, USA) and analyzed using a Shimadzu LCMS 8060 triple-quadrupole mass spectrometer coupled with a Nexera X2 ultra high-performance liquid chromatography system (Shimadzu, Kyoto, Japan) equipped with an electrospray ionization interface. […] Quantitation was conducted in selected reaction monitoring (SRM) modes with the precursor-to-product ion transition for each metabolite (Table 1 and Table 2).
(§3) We analyzed the data with Shimadzu LabSolution LC–MS software. […]

UGT1A1 = target: T2, UGT1A1 (Homo sapiens, UniProt P22309); assay: Inhibition of UGT1A1 (SN-38 glucuronidation) in human liver microsomes; parameters: tissue XenoTech XTreme 200; host or cells: pooled human liver microsomes; conditions: substrate SN-38; HLMs 0.25 mg/mL; average ± standard error
T2 sequence (P22309 26-533): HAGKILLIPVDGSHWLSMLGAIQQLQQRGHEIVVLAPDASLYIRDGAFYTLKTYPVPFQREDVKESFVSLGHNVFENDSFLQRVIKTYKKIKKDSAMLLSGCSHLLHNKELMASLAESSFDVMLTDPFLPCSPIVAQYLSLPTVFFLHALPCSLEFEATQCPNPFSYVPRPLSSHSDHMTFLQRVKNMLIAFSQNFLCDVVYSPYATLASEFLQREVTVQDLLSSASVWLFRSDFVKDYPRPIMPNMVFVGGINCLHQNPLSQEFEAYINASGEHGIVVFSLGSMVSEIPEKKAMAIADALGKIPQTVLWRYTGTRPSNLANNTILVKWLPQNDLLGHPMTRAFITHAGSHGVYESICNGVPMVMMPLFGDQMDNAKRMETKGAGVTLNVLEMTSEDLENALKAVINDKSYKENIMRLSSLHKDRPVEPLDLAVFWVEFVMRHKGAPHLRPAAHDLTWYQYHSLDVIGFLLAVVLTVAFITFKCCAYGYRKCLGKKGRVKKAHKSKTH
Method: as §1, §2, §3

CYP2C9 = CYP2C9 (Homo sapiens, UniProt P11712); assay: Time-dependent inhibition (IC50 shift) of CYP2C9, diclofenac, human liver microsomes; parameters: incubation mixtures containing pooled human liver microsomes (HLMs, XTreme 200, XenoTech); tissue XenoTech XTreme 200; host or cells: pooled human liver microsomes
Chain of CYP2C9 (P11712 whole entry): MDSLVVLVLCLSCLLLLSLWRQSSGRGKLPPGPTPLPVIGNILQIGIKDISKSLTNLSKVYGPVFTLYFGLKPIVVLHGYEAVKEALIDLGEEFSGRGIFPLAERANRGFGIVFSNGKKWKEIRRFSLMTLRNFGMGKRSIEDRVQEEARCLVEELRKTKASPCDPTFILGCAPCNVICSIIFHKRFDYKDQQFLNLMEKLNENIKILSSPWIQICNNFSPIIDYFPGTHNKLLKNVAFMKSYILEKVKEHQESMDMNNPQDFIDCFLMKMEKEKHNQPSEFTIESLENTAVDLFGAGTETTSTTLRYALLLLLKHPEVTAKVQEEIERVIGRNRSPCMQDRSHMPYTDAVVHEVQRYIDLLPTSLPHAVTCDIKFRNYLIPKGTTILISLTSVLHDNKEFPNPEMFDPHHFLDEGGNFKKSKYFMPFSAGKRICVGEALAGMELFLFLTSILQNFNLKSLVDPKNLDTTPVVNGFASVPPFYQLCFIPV
Method: The time-dependent inhibition of selamariscina A against CYP2C8 and CYP2C9 enzymes was evaluated using an IC50 shift method. Selamariscina A was pre-incubated at six concentrations (0, 0.002, 0.005, 0.02, 0.05, and 0.2 μM) with HLMs in the presence of an NDAPH generation system for 30 min at 37 °C. The reaction was initiated by adding 1 μM amodiaquine or 10 μM diclofenac and further incubated for 10 min. Incubation was terminated by adding 50 μL of ice-cold acetonitrile containing 7 nM trimipramine. After centrifugation, aliquots of supernatants were analyzed by LC–MS/MS.
All metabolites and the IS were separated on a Kinetex XB-C18 column (100 × 2.10 mm, 2.6 μm, 100 Å; Phenomenex, Torrance, CA, USA) and analyzed using a Shimadzu LCMS 8060 triple-quadrupole mass spectrometer coupled with a Nexera X2 ultra high-performance liquid chromatography system (Shimadzu, Kyoto, Japan) equipped with an electrospray ionization interface. The mobile phase consisted of 0.1% formic acid in water (A) and 0.1% formic acid in acetonitrile (B). The elution condition was set as 8% B (0–0.5 min), 8%→60% B (0.5–5 min), 60% B (5–6 min), 60%→8% B (6–6.1 min) and 8% B (6.1–9 min) for the analysis of metabolites of P450 probe substrates and set as 0%→40% B (0–1 min), 40%→50% B (1–5 min), 50%→0% B (5–5.1 min), and 0% B (5.1–8 min) for the analysis of metabolites of UGT probe substrates. The flow rate was 0.2 mL/min. Electrospray ionization was performed in positive-ion mode at 4000 V or in negative-ion mode at −3500 V. The optimum operating conditions were determined as follows: vaporizer temperature, 300 °C; capillary temperature, 350 °C; collision gas (argon) pressure, 1.5 mTorr. Quantitation was conducted in selected reaction monitoring (SRM) modes with the precursor-to-product ion transition for each metabolite (Table 1 and Table 2).
We analyzed the data with Shimadzu LabSolution LC–MS software. The IC50 values were calculated by WinNonlin software (Pharsight, Mountain View, CA, USA). […]

IC50 (UGT1A4) | IC50 (CYP2C9; 30 min pre-incubation at 37 °C with NADPH generation system, read-out: IC50, CYP2C9 diclofenac, HLMs pre-incubated with NADPH generation system) | Time-dependent inhibition of CYP2C9 (CYP2C9; IC50 shift method) | IC50 at 10 min (CYP2C9; human, human liver microsomes, probe diclofenac (10 μM), no NADPH pre-incubation, read-out: IC50, CYP2C9 diclofenac, untreated HLMs) | Compound | IC50 (UGT1A1)
7700 ± 1900 nM | 92 nM | not a time-dependent inhibitor | 54 nM | O=C1CC(c2cc(-c3c(O)ccc4c(=O)cc(-c5ccc(O)cc5)oc34)c(O)cc2O)Oc2cc(O)cc(O)c21 (stereo not drawn) [selamariscina A] | 1700 ± 500 nM
 |  |  |  | O=c1cc(-c2ccc(O)c(-c3c(O)cc(O)c4c(=O)cc(-c5ccc(O)cc5)oc34)c2)oc2cc(O)cc(O)c12 [amentoflavone] | 1700 nM
